According to PMC7932537, “Quantitative profiling of protease specificity” (PLoS Computational Biology, 2021):

How the values were obtained:
MMP-9 [1] = assay: Substrate phage display with NGS: relative probability (RP) of P3-P1' tetramer clusters; format: biochemical, human; settings: for relative_probability: tetramer clusters unique to the MMP-9 selectome, MMP-9 RP
MMP-2 [2] = assay: as above; format: biochemical, human; settings: for relative probability (RP) of matching tetramer: P3-P1' tetramer matching the MS detected MMP2 cleavage sequence, RP_above_4.5
MMP-9 [3] = target: MMP-9 (Homo sapiens, UniProt P14780); assay: K(obs) of individual phage substrates (set of 1369); format: biochemical; settings: MMP9
Chain of MMP-9 (Homo sapiens, UniProt P14780) (P14780 94-707): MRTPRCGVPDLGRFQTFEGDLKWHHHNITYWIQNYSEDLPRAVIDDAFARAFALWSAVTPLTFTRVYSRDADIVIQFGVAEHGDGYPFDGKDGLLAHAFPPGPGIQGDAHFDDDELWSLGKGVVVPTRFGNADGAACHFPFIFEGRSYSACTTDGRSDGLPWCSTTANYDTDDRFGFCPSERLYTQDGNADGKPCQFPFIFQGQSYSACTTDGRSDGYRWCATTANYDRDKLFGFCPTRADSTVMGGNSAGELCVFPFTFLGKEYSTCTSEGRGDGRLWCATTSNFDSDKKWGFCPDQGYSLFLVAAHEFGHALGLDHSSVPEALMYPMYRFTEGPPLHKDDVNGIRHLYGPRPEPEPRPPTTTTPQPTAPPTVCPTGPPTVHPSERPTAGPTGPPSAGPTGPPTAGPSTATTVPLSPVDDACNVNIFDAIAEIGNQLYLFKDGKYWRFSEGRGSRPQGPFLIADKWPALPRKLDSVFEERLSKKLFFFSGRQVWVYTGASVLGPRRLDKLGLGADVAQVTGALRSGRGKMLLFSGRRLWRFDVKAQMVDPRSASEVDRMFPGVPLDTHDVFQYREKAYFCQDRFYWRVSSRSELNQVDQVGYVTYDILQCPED

MMP-2 [4] = target: T1, MMP-2 (Homo sapiens, UniProt P08253); assay: as above; format: biochemical; settings: MMP2
T1 sequence (P08253 110-660): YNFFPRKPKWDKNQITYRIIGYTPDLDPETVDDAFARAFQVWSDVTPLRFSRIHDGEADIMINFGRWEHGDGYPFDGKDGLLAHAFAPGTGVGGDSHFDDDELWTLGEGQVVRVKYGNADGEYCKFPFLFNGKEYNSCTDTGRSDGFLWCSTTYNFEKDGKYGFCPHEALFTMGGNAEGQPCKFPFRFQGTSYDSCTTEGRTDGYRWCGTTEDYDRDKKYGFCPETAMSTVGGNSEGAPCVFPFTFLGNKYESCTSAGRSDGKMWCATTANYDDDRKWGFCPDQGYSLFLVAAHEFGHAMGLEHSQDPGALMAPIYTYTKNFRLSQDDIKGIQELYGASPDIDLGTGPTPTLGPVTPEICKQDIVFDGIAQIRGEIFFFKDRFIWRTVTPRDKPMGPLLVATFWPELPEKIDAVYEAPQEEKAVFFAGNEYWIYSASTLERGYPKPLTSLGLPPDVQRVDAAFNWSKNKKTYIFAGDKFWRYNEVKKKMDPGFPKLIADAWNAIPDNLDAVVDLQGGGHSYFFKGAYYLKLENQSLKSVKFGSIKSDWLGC

[5] = RP of the P3-P1' tetramer in MMP-9 substrate phage display/NGS, tetramer annotation of MMP-9 cleavage sites (octamers P4-P4') collected in MEROPS database
[6] = rank of the P3-P1' tetramer by RP in MMP-9 substrate phage display/NGS, tetramer annotation of MMP-9 cleavage sites (octamers P4-P4') collected in MEROPS database
[7] = MMP9, RP of matching P3-P1' tetramer, common set of MMP2-9 selectome
[8] = MMP2, RP of matching P3-P1' tetramer, common set of MMP2-9 selectome, RP above KL threshold
[9] = MMP9, RP of the P3-P1' tetramer matching the MS detected cleavage, RP above 4.7, substrate phage display with NGS
[10] = RP of matching tetramer, common MMP2-9 selectome, RP above KL threshold
[11] = RP of matching tetramer, common MMP2-9 selectome
[12] = RP of the P3-P1' tetramer, MMP9 substrate phage display/NGS, tetramers of physiologic MEROPS substrates common to MMP2 and MMP9
[13] = RP of the P3-P1' tetramer, MMP2 substrate phage display/NGS, tetramers of physiologic MEROPS substrates common to MMP2 and MMP9
[14] = tetramer annotation of MMP-9 cleavage sites in physiologic substrates from MEROPS
[15] = RP according to MMP9, P3-P1' tetramer of unique physiologic MMP9 substrates from MEROPS
[16] = tetramer projected onto MMP-9 cleavage sites determined by Prudova et al. (2010)
[17] = tetramer probability in MMP9 set / naive library, 200 nM protease, 2 h, 37°C
[18] = individual phage substrate of the set of 1369 peptides, dash in the sequence marks the cleavage position
[19] = MMP2, RP of the P3-P1' tetramer contained in the substrate
[20] = individual phage substrate of the set of 1369 peptides, cleavage position marked by '-'
[21] = individual phage substrates, set of 1369 peptides, hyphen in sequence marks cleavage position
[22] = MMP2, RP of the P3-P1' tetramer contained in the substrate (substrate phage display with NGS)
[23] = individual phage substrates, set of 1369 peptides, cleavage position marked by hyphen in sequence

## AAAA
MMP-9 [1]; [5]
  relative probability (RP): 0.34
MMP-9 [1]; [6]
  Relative probability (RP) rank: 31285

## AAAI
MMP-9 [1]; [7]
  relative probability (RP) (acc.to MMP9): 15.73
MMP-2 [2]; [8]
  relative probability (RP) (acc.to MMP2): 25.49
MMP-2 [2]
  relative probability (RP) of matching tetramer: 25.49

## AAAK
MMP-9 [1]; [5]
  relative probability (RP): 0
MMP-9 [1]; [6]
  Relative probability (RP) rank: 91823

## AAAL
MMP-9 [1]; [7]
  relative probability (RP) (acc.to MMP9): 32.12
MMP-9 [1]; [9]
  relative probability (RP): 32.12
MMP-9 [1]; [10]
  relative probability (RP) (acc.to MMP9): 32.12
MMP-2 [2]; [8]
  relative probability (RP) (acc.to MMP2): 31.4
MMP-2 [2]
  relative probability (RP) of matching tetramer: 31.4
MMP-2 [2]; [11]
  relative probability (RP) (acc.to MMP2): 31.4
MMP-2 [2]; tetramer annotation of MMP-2 cleavage sites in all substrates from MEROPS
  relative probability (RP): 31.4

## AAAM
MMP-9 [1]; [7]
  relative probability (RP) (acc.to MMP9): 23.49
MMP-2 [2]; [8]
  relative probability (RP) (acc.to MMP2): 23.42
MMP-2 [2]
  relative probability (RP) of matching tetramer: 23.42

## AAAY
MMP-9 [1]; [5]
  relative probability (RP): 22.04
MMP-9 [1]; [6]
  Relative probability (RP) rank: 2070

## AAGV
MMP-9 [1]; [12]
  relative probability (RP) (acc.to MMP9): 0.05
MMP-2 [2]; [13]
  relative probability (RP) (acc.to MMP2): 0.76

## AHNLSS
MMP-9 [1]; MMP9, RP of the P3-P1' tetramer contained in the hexamer substrate (substrate phage display, NGS)
  relative probability (RP): 29.6602
MMP-2 [2]; RP of the P3-P1' tetramer cluster contained in the hexamer, 200 nM MMP-2, 2 h, 37°C, two rounds of selection
  relative probability (RP): 23.7113

## AIHI
MMP-9 [1]; [12]
  relative probability (RP) (acc.to MMP9): 5.64
MMP-2 [2]; [13]
  relative probability (RP) (acc.to MMP2): 4.71

## AINI
MMP-9 [1]; [7]
  relative probability (RP) (acc.to MMP9): 14.08
MMP-9 [1]; [9]
  relative probability (RP): 14.08
MMP-9 [1]; [10]
  relative probability (RP) (acc.to MMP9): 14.08
MMP-2 [2]; [8]
  relative probability (RP) (acc.to MMP2): 8.5
MMP-2 [2]
  relative probability (RP) of matching tetramer: 8.5
MMP-2 [2]; [11]
  relative probability (RP) (acc.to MMP2): 8.5

## AKRF
MMP-9 [1]; [14]
  relative probability (RP): 0.43

## FFPF
MMP-9 [1]; [14]
  relative probability (RP): 0.33

## GVMQ
MMP-9 [1]; [15]
  Relative probability (RP) rank: 91467
  relative probability (RP): 0

## IIGL
MMP-9 [1]; [15]
  Relative probability (RP) rank: 15777
  relative probability (RP): 0.98

## IRYV
MMP-9 [1]; [9]
  relative probability (RP): 10.4

## ITPL [P3-P1' tetramer cluster]
MMP-9 [1]; [16]
  relative probability (RP): 0.92

## IYYI
MMP-9 [1]; [9]
  relative probability (RP): 14.54

## PAPL [P3-P1' tetramer cluster]
MMP-9 [1]; [16]
  relative probability (RP): 46.24

## PDHL
MMP-9 [1]; [9]
  relative probability (RP): 13.06

## PFAS
MMP-9 [1]; [9]
  relative probability (RP): 24.05

## PFAV [P3-P1' tetramer cluster]
MMP-9 [1]; [16]
  relative probability (RP): 43.58

## PFKI
MMP-9 [1]; [9]
  relative probability (RP): 34.84

## PFPL [P3-P1' tetramer cluster]
MMP-9 [1]; [16]
  relative probability (RP): 49.54

## PFSV [P3-P1' tetramer cluster]
MMP-9 [1]; [16]
  relative probability (RP): 31.92

## PKAS [P3-P1' tetramer cluster]
MMP-9 [1]; [16]
  relative probability (RP): 25.84

## PKGE [P3-P1' tetramer cluster]
MMP-9 [1]; [16]
  relative probability (RP): 0

## PMAA
MMP-9 [1]; [9]
  relative probability (RP): 16.94

## PMPL [P3-P1' tetramer cluster]
MMP-9 [1]; [17]
  relative probability (RP): 51.2509

## PMWM [P3-P1' tetramer cluster]
MMP-9 [1]; [17]
  relative probability (RP): 52.3808

## PRGI [P3-P1' tetramer cluster]
MMP-9 [1]; [16]
  relative probability (RP): 47.2

## PRLV
MMP-9 [1]; [9]
  relative probability (RP): 7.12

## PSGI [P3-P1' tetramer cluster]
MMP-9 [1]; [16]
  relative probability (RP): 45.03

## PVGI [P3-P1' tetramer cluster]
MMP-9 [1]; [16]
  relative probability (RP): 46.04

## PVGV [P3-P1' tetramer cluster]
MMP-9 [1]; [16]
  relative probability (RP): 34.33

## PVPQ [P3-P1' tetramer cluster]
MMP-9 [1]; [16]
  relative probability (RP): 29.84

## PWAQ [P3-P1' tetramer cluster]
MMP-9 [1]
  relative_probability: 41.83

## PWMI [P3-P1' tetramer cluster]
MMP-9 [1]
  relative_probability: 41.91

## PWMM [P3-P1' tetramer cluster]
MMP-9 [1]
  relative_probability: 46.92

## PWPH
MMP-9 [1]; [9]
  relative probability (RP): 15.08

## PWWI [P3-P1' tetramer cluster]
MMP-9 [1]
  relative_probability: 43.44

## PWWM [P3-P1' tetramer cluster]
MMP-9 [1]
  relative_probability: 45.99

## PYAI [P3-P1' tetramer cluster]
MMP-9 [1]; [17]
  relative probability (RP): 51.7522

## TITG
MMP-9 [1]; [15]
  Relative probability (RP) rank: 47886
  relative probability (RP): 0.16

## TMNM
MMP-9 [1]; [9]
  relative probability (RP): 6.67

## VGSL [P3-P1' tetramer cluster]
MMP-9 [1]; [16]
  relative probability (RP): 7.47

## WVMES-LTASG
MMP-9 [3]; [18]
  Kobs: 386.839 M⁻¹ s⁻¹
MMP-2 [2]; [19]
  relative probability (RP): 8.775
MMP-2 [4]; [20]
  Kobs: 1660.66 M⁻¹ s⁻¹

## YCSLP-LTASG
MMP-9 [3]; [21]
  Kobs: 113.394 M⁻¹ s⁻¹
MMP-2 [2]; [22]
  relative probability (RP): 8.6373
MMP-2 [4]; [23]
  Kobs: 451.441 M⁻¹ s⁻¹

## YDIHF-LTASG
MMP-9 [3]; [18]
  Kobs: 0 M⁻¹ s⁻¹
MMP-2 [2]; [19]
  relative probability (RP): 4.537
MMP-2 [4]; [20]
  Kobs: 0 M⁻¹ s⁻¹

## YDISA-LTASG
MMP-9 [3]; [18]
  Kobs: 113.394 M⁻¹ s⁻¹
MMP-2 [2]; [19]
  relative probability (RP): 31.8319
MMP-2 [4]; [20]
  Kobs: 12792.1 M⁻¹ s⁻¹

## YDSRG-LTASG
MMP-9 [3]; [18]
  Kobs: 231.616 M⁻¹ s⁻¹
MMP-2 [2]; [19]
  relative probability (RP): 6.164
MMP-2 [4]; [20]
  Kobs: 1239.69 M⁻¹ s⁻¹

## YDTQH-LTASG
MMP-9 [3]; [21]
  Kobs: 0 M⁻¹ s⁻¹
MMP-2 [2]; [22]
  relative probability (RP): 2.922
MMP-2 [4]; [23]
  Kobs: 0 M⁻¹ s⁻¹

## YDVYN-LTASG
MMP-9 [3]; [18]
  Kobs: 7815.03 M⁻¹ s⁻¹
MMP-2 [2]; [19]
  relative probability (RP): 19.1818
MMP-2 [4]; [20]
  Kobs: 3253.29 M⁻¹ s⁻¹

## YEPRN-VTASG
MMP-9 [3]; [21]
  Kobs: 10866.7 M⁻¹ s⁻¹
MMP-2 [2]; [22]
  relative probability (RP): 26.6015
MMP-2 [4]; [23]
  Kobs: 12792.1 M⁻¹ s⁻¹

## YKPAG-LTASG
MMP-9 [3]; [21]
  Kobs: 12792.1 M⁻¹ s⁻¹
MMP-2 [2]; [22]
  relative probability (RP): 36.0156
MMP-2 [4]; [23]
  Kobs: 10866.7 M⁻¹ s⁻¹

## YLVRY-LTASG
MMP-9 [3]; [21]
  Kobs: 12792.1 M⁻¹ s⁻¹
MMP-2 [2]; [22]
  relative probability (RP): 18.3724
MMP-2 [4]; [23]
  Kobs: 9740.44 M⁻¹ s⁻¹

## YNWRH-LTASG
MMP-9 [3]; [21]
  Kobs: 619.843 M⁻¹ s⁻¹
MMP-2 [2]; [22]
  relative probability (RP): 0.4087
MMP-2 [4]; [23]
  Kobs: 799.117 M⁻¹ s⁻¹

## YPFGS-LTASG
MMP-9 [3]; [18]
  Kobs: 355.093 M⁻¹ s⁻¹
MMP-2 [2]; [19]
  relative probability (RP): 21.9152
MMP-2 [4]; [20]
  Kobs: 12792.1 M⁻¹ s⁻¹

## YSATN-LTASG
MMP-9 [3]; [21]
  Kobs: 484.315 M⁻¹ s⁻¹
MMP-2 [2]; [22]
  relative probability (RP): 16.0897
MMP-2 [4]; [23]
  Kobs: 12792.1 M⁻¹ s⁻¹

## YSPMD-YTASG
MMP-9 [3]; [18]
  Kobs: 12792.1 M⁻¹ s⁻¹
MMP-2 [2]; [19]
  relative probability (RP): 10.9087
MMP-2 [4]; [20]
  Kobs: 1660.66 M⁻¹ s⁻¹

## YVPTG-LTASG
MMP-9 [3]; [18]
  Kobs: 4763.33 M⁻¹ s⁻¹
MMP-2 [2]; [19]
  relative probability (RP): 33.1098
MMP-2 [4]; [20]
  Kobs: 5461.43 M⁻¹ s⁻¹

## YYPRA-LTASG
MMP-9 [3]; [18]
  Kobs: 12792.1 M⁻¹ s⁻¹
MMP-2 [2]; [19]
  relative probability (RP): 35.2345
MMP-2 [4]; [20]
  Kobs: 12792.1 M⁻¹ s⁻¹
